Measurements published in patent US20210145811A1, “TREATMENT OF CANCER WITH EXON 14 SKIPPING MUTATION(S) OR EXON 14 SKIPPING PHENOTYPE” (Eli Lilly and Company, priority 2016, published 2021).

How the values were obtained:
[1] = molecular target: T1, phospho-MET (Y1234/1235) (Homo sapiens, UniProt P08581, DEL964-1010); assay: Western blotting of phospho-MET in Hs746t cells; type: cell-based; conditions: Hs746t cells (MET exon 14 skipping), 2 hours incubation, Western blot
T1 construct: Western blots performed on lysates from in vitro cultured cells confirm a strong band corresponding to MET protein; host or cells: Hs746t
Description: (§1) Hs746t cells are obtained from ATCC® (Manassas, Va.) and are maintained in DMEM Medium with L-glutamine and 10% fetal bovine serum (FBS). MKN45 cells, expressing wild-type MET, are obtained from JCRB Cell Bank (Japan) and are maintained in RPMI 1640 Medium with L-glutamine, 10% FBS, and sodium pyruvate. Cells are grown at 37° C. with 5% CO2. Cells are seeded into 6-well plates, 1 million cells/well, and incubated overnight. Cells are incubated with merestinib for 2 hours, then are lysed in radioimmunoprecipitation assay (RIPA) buffer containing protease inhibitors. Protein concentrations of cell lysates are measured with the DC™ Protein Assay (BioRad), following manufacturer directions. Lysates are electrophoresed on Novex® 4-20% Tris Glycine gels (Invitrogen), and are transferred onto polyvinylidene difluoride (PVDF) membranes. The blots are probed for total MET (clone D1C2, CELL SIGNALING TECHNOLOGY®, Cat #8198), phospho-MET (Y1234/1235, clone D26, CELL SIGNALING TECHNOLOGY®, Cat #3077), and phospho-MET (Y1003, clone 13D11, CELL SIGNALING TECHNOLOGY®, Cat #3135). Monoclonal Anti-β-Actin (clone AC-15, SIGMA-ALDRICH®, Cat #A5441) is used as a loading control. After incubating with horseradish peroxidase (HRP)-linked secondary antibodies, blots are developed with chemiluminescent substrate and imaged on a Lumi-Imager (Roche).

[2] = molecular target: T2, phospho-MET (Y1234/1235) (Homo sapiens, UniProt P08581); assay: Western blotting of phospho-MET in MKN45 cells; type: cell-based; conditions: MKN45 cells (wild-type MET), 2 hours incubation, Western blot
T2 construct: MKN45 cells, expressing wild-type MET; host or cells: MKN45
Description: as §1

[3] = test system: Hs746t cells; assay: Cell proliferation assay (CELL TITER-GLO); type: cell-based; conditions: Homo sapiens, 120 h, 5 days exposure, n=2, read-out: IC50 in vitro Hs746t cell proliferation
Description: Hs746t cells are seeded onto poly-D-lysine, 96-well plates, 3000 cells/well and allowed to attach overnight in a 37° C. with 5% CO2 incubator. Merestinib is serially diluted 1:3 and added to the cells in triplicate. After 120 hours, cell viability is measured with the CELL TITER-GLO® Luminescent Cell Viability Assay (Promega), following manufacturer directions. The data are analyzed with GraphPad Prism v6 software. The assay is performed in duplicate experiments.

[4] = test system: Hs746t-derived xenograft; assay: In vivo Hs746t xenograft model; set-up: species or system mouse
Description: (§2) Female athymic nude mice (Envigo) are used for this study. Food and water are available ad libitum. Animals are acclimated for 1 week prior to any experimental manipulation. The study is performed in accordance with AAALAC accredited institutional guidelines.
Merestinib is formulated as a solution in 10% PEG 400/90% (20% Captisol in water). Solution is freshly prepared every 7 days.
Hs746t cells are expanded in culture, harvested, and washed in Hank's Balanced Salt Solution (HBSS, GIBCO®). Approximately 5×10^6 cells in HBSS are implanted subcutaneously into the hind flank of the animal. When tumors reach an average size of 150 to 200 mm^3, the animals are randomized into groups of 7. […]
Animals are sacrificed using CO2 and cervical dislocation when tumors grew larger than 2000 mm^3.
(§3) Tumor volumes and body weight are measured bi-weekly. Statistical analysis is performed when 3 of the 7 vehicle treated animals hed been removed from the study due to tumor burden. Tumor volume is transformed to the log scale to equalize variance across time and treatment groups. The log volume data are analyzed with a two-way repeated measures analysis of variance by time and treatment using the MIXED procedures in SAS software (Version 9.3). The correlation model for the repeated measures is spatial power. Treated groups are compared to the control group at each time point. The MIXED procedure is also used separately for each treatment group to calculate adjusted means and standard errors at each time point. Both analyses account for the autocorrelation within each animal and the loss of data that occurs when animals are removed or lost before the end of the study. The adjusted means and standard errors are plotted for each treatment group versus time.
Measure tumor growth with calipers. Calculate tumor volumes by the formula Volume (mm^3)=L×W^2 (π/6) where L represents the larger diameter and W the smaller diameter. Calculate T/C % using the formula T/C %=100×ΔT/ΔC. Where ΔT=mean tumor volume of the drug-treated group on the final day of the study−mean tumor volume of the drug-treated group on the initial day of the dosing and ΔC=mean tumor volume of the control group on the final day of the study−mean tumor volume of the control group on the initial day of the dosing. Calculate changes in body weight by the formula (Weight on observation day−Weight on day 12)/Weight on Day 12×100.

[5] = Body weight and health in Hs746t xenograft study; type: in vivo, mouse; conditions: groups treated with merestinib (6 or 12 mg/kg)
Description: as §2
Hs746t cells are expanded in culture, harvested, and washed in Hank's Balanced Salt Solution (HBSS, GIBCO®). Approximately 5×10^6 cells in HBSS are implanted subcutaneously into the hind flank of the animal. When tumors reach an average size of 150 to 200 mm^3, the animals are randomized into groups of 7. Merestinib is prepared and administered via oral gavage at 6 or 12 mg/kg doses on a once daily schedule for 21 days.
as §3, with “Both analyses account for the autocorrelation within each animal and the loss of data that occurs when animals are removed or lost before the end of the study. The adjusted means and standard errors are plotted for each treatment group versus time.” left out

Cc1ccc(C(=O)Nc2ccc(Oc3cc4cnn(C)c4cc3-c3cn[nH]c3)c(F)c2)c(=O)n1-c1ccc(F)cc1 [merestinib, N-(3-Fluoro-4-(1-methyl-6-(1H-pyrazol-4-yl)-1H-indazol-5-yloxy)phenyl)-1-(4-fluorophenyl)-6-methyl-2-oxo-1,2-dihydropyridine-3-carboxamide]
phosphorylated MET at the Y1234/1235 position [1]: inhibited
phosphorylated MET at the Y1234/1235 position [2]: inhibited
IC50 [3]: 0.0334 µM
tumors showing signs of regrowth (2 consecutively larger tumor volume measurements) ([4]; 6 mg/kg oral gavage once daily, end of study): 5 of the 7
anti-tumor activity T/C ([4]; 6 mg/kg oral gavage once daily, end of study, p=0.033 vs vehicle): 18.3%
tumor regression ([4]; 12 mg/kg oral gavage once daily, to the end of the study): 91.8%
tumor re-growth after treatment is terminated ([4]; 12 mg/kg, 5 weeks after treatment terminated): no tumor re-growth was observed
animals that are complete responders ([4]; 12 mg/kg, 64 days of dosing): 6 of the 7
tumor re-growth during treatment (treatment resistance) ([4]; 12 mg/kg, within 2 months of treatment): No tumor re-growth is observed
health issues in the animals [5]: no noticeable health issues
